Measurements: patent publication US11718628B2, “SREBP inhibitors comprising a 6-membered central ring” (Capulus Therapeutics, LLC, priority 2018, dated 2023)
In brackets after ≈: the same amount, converted by molar mass.

Experiments:
[1] = Half-life in mouse liver microsomes; format: in vitro ADME; details: mouse, liver microsomes, read-out: H: half-life of mouse liver microsomes
Description: (§1) Half-life Human Microsomes: Compounds were evaluated for stability in human liver microsomes. A 10 mM stock solution of the compound being evaluated was prepared in DMSO and diluted with water:acetonitrile (1:1) to a concentration of 1 mM. A working concentration of 100 μM was prepared by further dilution with water:acetonitrile (1:1). To make the preincubation mixture, 2.5 μL of the diluted compound was combined with 75 μL of human liver microsomes at 3.33 mg/mL, and 85 μL of 100 mM potassium phosphate buffer, and this mixture was pre-incubated for 10 min at 37° C. To make the 60 minute mixture without cofactor, 32.5 μL of the preincubation mixture was combined with 17.5 μL of 100 mM potassium phosphate buffer and incubated for 60 min at 37° C. To make the 0 min sample with cofactor (NADPH), 16.25 μL of the preincubation mixture was combined with 200 μL of acetonitrile containing internal standard and 8.75 μL of cofactor (NADPH). To make the incubation mixture, 62 μL of cofactor (2.85 mM) was combined with the remaining incubation mixture, and incubated for 60 min at 37° C. To prepare the sample mixture to be evaluated, 25 μL incubation mixture was combined with 200 μL of acetonitrile containing internal standard and vortexed for 5 min at 1200 rpm, then centrifuged for 10 min at 4000 rpm. The supernatant was diluted 2 fold with water and injected on LC-MS/MS. The sample mixture was evaluated by LC-MS/MS using 10 mM ammonium acetate with 0.1% FA as the aqueous mobile phase, and methanol as the organic mobile phase.
Half-life Mouse Microsomes: Compounds were evaluated in mouse liver microsomes following a similar procedure as described above for human liver microsomes. A similar procedure could be used to evaluate compounds in rat liver microsomes.

[2] = Half-life in human liver microsomes; format: in vitro ADME; details: human, liver microsomes, NADPH, 37° C., read-out: G: half-life human liver microsomes
Description: as §1

Kinetic solubility = format: physicochemical; details: aqueous buffer, kinetic from dmso stock, pH 7.4 buffer, room temperature, 1.0% DMSO, read-out: I: kinetic solubility class
Description: Kinetic Solubility Procedure: A 10 mM stock solution of a compound was prepared in DMSO, then 4 μL of the stock was added to a deep well plate containing 396 μL of pH 7.4 buffer. The sample plate was vortexed at 800 rpm for 24 h on thermomixer at room temperature. The plate was sealed well during the incubation process. The DMSO content in the sample was 1.0%. The concentration of the evaluated compound in the final incubation was 100 μM. At the end of the incubation period, the sample plate was centrifuged at 4000 rpm for 10 min and analyzed in LC-UV against a calibration curve (CC). Values <10 μg/mL=Low; 10 to 60 μg/mL=Medium; >60 μg/mL=High.

`CC(C)(C)c1cc(-c2cncc(-c3ccc(C(=O)N4CC(CO)C4)cc3Cl)c2)ccn1` gave a half-life at 1 µM [1] of 0.442 h, a half-life at 1 µM [2] of 1.74 min and a solubility kinetic at 24 h (Kinetic solubility) of 10 to 60 µg/mL (≈ 22.9 to 138 µM).
Work on `CC(C)(C)c1cc(-c2cncc(-c3ccc(C(=O)N4CC(O)C4)cc3Cl)c2)ccn1` yielded a half-life at 1 µM [1] of 0.638 h, a half-life at 1 µM [2] of 2.01 min and a solubility kinetic at 24 h (Kinetic solubility) of 10 to 60 µg/mL (≈ 23.7 to 142 µM).
Work on `CC(C)(C)c1cc(-c2cccc(-c3ccc(NS(=O)(=O)C(F)(F)F)cc3Cl)c2F)ccn1` yielded a half-life at 1 µM [1] of 1.35 h, a half-life at 1 µM [2] of 0.54 min and a solubility kinetic at 24 h (Kinetic solubility) of 10 to 60 µg/mL (≈ 20.5 to 123 µM).
With `CC(C)(C)c1cc(-c2cccc(-c3ccc(NS(C)(=O)=O)cc3Cl)c2)ccn1` the half-life at 1 µM [1] was 1.83 h, the half-life at 1 µM [2] was 90.8 min and the solubility kinetic at 24 h (Kinetic solubility) was less than 10 µg/mL.
Work on `CC(C)(C)c1cc(-c2cccc(-c3ccc(NS(C)(=O)=O)cc3Cl)c2F)ccn1` yielded a half-life at 1 µM [1] of 3.43 h, a half-life at 1 µM [2] of 16.4 min and a solubility kinetic at 24 h (Kinetic solubility) of less than 10 µg/mL.
`CC(C)(C)c1cc(-c2cccc(-c3ccc(C(=O)N4CCC(O)CC4)cc3Cl)c2F)ccn1` gave a half-life at 1 µM [1] of 0.672 h, a half-life at 1 µM [2] of 16.3 min and a solubility kinetic at 24 h (Kinetic solubility) of less than 10 µg/mL.
`CC(C)(C)c1cc(-c2cccc(-c3ccc(C(=O)NS(=O)(=O)C4CC4)cc3Cl)c2)ccn1` showed a half-life at 1 µM [1] of 1.11 h, a half-life at 1 µM [2] of 12.1 min and a solubility kinetic at 24 h (Kinetic solubility) of 10 to 60 µg/mL (≈ 21.3 to 128 µM).
In the case of `CC(C)(C)c1cc(-c2cccc(-c3ccc(NS(=O)(=O)CC(F)(F)F)cc3Cl)c2)ccn1`, the half-life at 1 µM [1] is reported as greater than 2 h, the half-life at 1 µM [2] is reported as greater than 120 min and the solubility kinetic at 24 h (Kinetic solubility) is reported as less than 10 µg/mL.
`CC(C)(C)c1cc(-c2cccc(-c3ccc(NC(=O)N4CCC(O)CC4)cc3Cl)c2)ccn1` showed a half-life at 1 µM [1] of 6.67 h, a half-life at 1 µM [2] of 72.1 min and a solubility kinetic at 24 h (Kinetic solubility) of less than 10 µg/mL.
Compound `CC(C)(C)c1cc(-c2cncc(-c3ccc(C(=O)N4CCC(O)CC4)cc3)c2F)ccn1` [drawing 321] has a half-life at 1 µM [1] of 1.38 h, a half-life at 1 µM [2] of 126 min and a solubility kinetic at 24 h (Kinetic solubility) of 10 to 60 µg/mL (≈ 23.1 to 138 µM).
Work on `Cc1cc(C(=O)N2CCC(O)CC2)ccc1-c1cncc(-c2ccnc(C(C)(C)C)c2)c1` [drawing 337] yielded a half-life at 1 µM [1] of 3.55 h, a half-life at 1 µM [2] of 13.9 min and a solubility kinetic at 24 h (Kinetic solubility) of 10 to 60 µg/mL (≈ 23.3 to 140 µM).
For `CC(C)(C)c1cc(-c2cncc(-c3ccc(NS(C)(=O)=O)cc3Cl)c2)ccn1` [drawing 346], the half-life at 1 µM [1] was 0.993 h, the half-life at 1 µM [2] was 19.8 min and the solubility kinetic at 24 h (Kinetic solubility) was less than 10 µg/mL.
`CC(C)(O)c1cc(-c2cncc(-c3ccc(C(=O)N4CCC(O)CC4)cc3Cl)c2)ccn1` [drawing 356] showed a half-life at 1 µM [1] of 48.7 h, a half-life at 1 µM [2] of 541 min and a solubility kinetic at 24 h (Kinetic solubility) of 10 to 60 µg/mL (≈ 22.1 to 133 µM).
`CC1(O)CCCN(C(=O)c2ccc(-c3cncc(-c4ccnc(C(C)(C)C)c4)c3)c(Cl)c2)C1` (stereo not drawn) [drawing 366] gave a half-life at 1 µM [1] of 0.19 h, a half-life at 1 µM [2] of 5.81 min and a solubility kinetic at 24 h (Kinetic solubility) of 10 to 60 µg/mL (≈ 21.6 to 129 µM).
In the case of `CC1(O)CCN(C(=O)c2ccc(-c3cncc(-c4ccnc(C(C)(C)C)c4)c3)c(Cl)c2)CC1` [drawing 369], the half-life at 1 µM [1] is reported as 0.505 h, the half-life at 1 µM [2] is reported as 13 min and the solubility kinetic at 24 h (Kinetic solubility) is reported as 10 to 60 µg/mL (≈ 21.6 to 129 µM).
`CC(C)OC(=O)Nc1ccc(-c2cncc(-c3ccnc(C4OCCO4)c3)c2)c(Cl)c1` [drawing 371] gave a half-life at 1 µM [1] of 0.32 h, a half-life at 1 µM [2] of 13.5 min and a solubility kinetic at 24 h (Kinetic solubility) of less than 10 µg/mL.
Work on `CC(C)OC(=O)Nc1ccc(-c2cncc(-c3ccnc(C(C)(C)C)c3)c2)c(Cl)c1` [drawing 372] yielded a half-life at 1 µM [1] of 3.7 h, a half-life at 1 µM [2] of 69.9 min and a solubility kinetic at 24 h (Kinetic solubility) of less than 10 µg/mL.
`COC1CCCN(C(=O)c2ccc(-c3cncc(-c4ccnc(C(C)(C)C)c4)c3)c(Cl)c2)C1` (stereo not drawn) [drawing 375] showed a half-life at 1 µM [1] of 0.15 h, a half-life at 1 µM [2] of 2.02 min and a solubility kinetic at 24 h (Kinetic solubility) of 10 to 60 µg/mL (≈ 21.6 to 129 µM).
In the case of `CC(C)(C)c1cc(-c2cc(-c3ccc(C(=O)N4CCC(O)CC4)cc3Cl)ncn2)ccn1` [drawing 376], the half-life at 1 µM [1] is reported as 1.14 h, the half-life at 1 µM [2] is reported as 20.3 min and the solubility kinetic at 24 h (Kinetic solubility) is reported as 10 to 60 µg/mL (≈ 22.2 to 133 µM).
`CC(C)(C)c1cc(-c2cccc(-c3ccc(C(=O)N4CCC(O)CC4)cc3Cl)c2)ccn1` [drawing 377] gave a half-life at 1 µM [1] of 1.5 h, a half-life at 1 µM [2] of 46.5 min and a solubility kinetic at 24 h (Kinetic solubility) of less than 10 µg/mL.
Work on `CC(C)(C)c1cc(-c2cncc(-c3ccc(C(=O)N4CCC(O)CC4)cc3Cl)c2)ccn1` [drawing 378] yielded a half-life at 1 µM [1] of 1.33 h, a half-life at 1 µM [2] of 61.2 min and a solubility kinetic at 24 h (Kinetic solubility) of 10 to 60 µg/mL (≈ 22.2 to 133 µM).
In the case of `CC(C)(C)c1cc(-c2cncc(-c3ccc(C(=O)N4CCC(O)C(O)C4)cc3Cl)c2)ccn1` (stereo not drawn) [drawing 419], the half-life at 1 µM [1] is reported as 1.11 h, the half-life at 1 µM [2] is reported as 21.8 min and the solubility kinetic at 24 h (Kinetic solubility) is reported as 10 to 60 µg/mL (≈ 21.5 to 129 µM).
